Results reported in article PMC6332446, “Acylphloroglucinol Derivatives from the South African Helichrysum niveum and Their Biological Activities” (Molecules, 2015).

What was measured:
[1] = ORAC assay, hydroxyl radical absorbance capacity (ORACOH); conditions: trolox equivalents; H2O2 0.3%, Cu2+ 18 μM, 37 °C; ± % STDEV
Procedure: (§1) Automated Oxygen Radicals Absorbance Capacity (ORAC) Assay: ORAC was measured according to the method previously described. The method measures the antioxidant scavenging capacity for (a) peroxyl radicals generated by thermal decomposition of 2,2ʹ-azobis ([…]) dihydrochloride (AAPH; ORACROO assay); (b) hydroxyl radical (ORACOH assay), generated by H2O2-Cu^2+ (H2O2, 0.3%; Cu^2+ [as CuSO4], 18 μM, or (c) Cu^2+ [as CuSO4], 18 μM as a transition metal oxidant at 37 °C. ORAC values were expressed as micromoles of trolox equivalents (TE) per milligram of test sample, except when Cu^2+ (without H2O2) was used as an oxidant in the assay. In the presence of Cu^2+ without H2O2, test samples acted as prooxidants rather than antioxidants in the ORAC assay. The copper-initiated prooxidant activity was calculated using [(AreaBlank − AreaSample)/AreaBlank] × 100 and expressed as prooxidant units; one unit equals the prooxidant activity that reduces the area under the fluorescein decay curve by 1% in the ORAC assay.

[2] = Copper-initiated prooxidant activity in the ORAC assay; conditions: Cu2+ 18 μM without H2O2, 37 °C; one unit = 1% reduction of area under fluorescein decay curve
Procedure: as §1

[3] = Trolox equivalent absorbance capacity (TEAC) assay; conditions: trolox equivalents; absorbance 734 nm, 25 °C
Procedure: Trolox Equivalent Absorbance Capacity (TEAC) Assay: The total antioxidant capacity of the test samples in terms of TEAC were measured using a previously described method. Absorbance was read at 734 nm at 25 °C in a plate reader and the results were expressed as μM trolox equivalents per milligram dry weight (μM TE/g DW) of the test samples.

[4] = Ferric-ion reducing antioxidant power (FRAP) assay; conditions: ascorbic acid equivalents; absorbance 593 nm; ± % STDEV
Procedure: Ferric-Ion Reducing Antioxidant Power (FRAP) Assay: Working FRAP reagent was prepared in accordance to the method described previously. Absorbance was measured at 593 nm. L-ascorbic acid was used as a standard and the results were expressed as μM ascorbic acid equivalents per milligram dry weight (μM AAE/g DW) of the test samples.

mushroom tyrosinase = assay: Tyrosinase enzyme assay; format: biochemical; conditions: L-Tyrosine substrate; samples screened at 100.00 μg/mL upper limit
Procedure: Tyrosinase Enzyme Assay: The tyrosinase inhibitory activity was measured using the spectrophotometric method previously described. Samples were dissolved in DMSO to a stock solution of 1 mg/mL, and further dilutions were then done with 50 mM sodium phosphate buffer (pH 6.5) for all working solutions. […] In the wells of a 96-well plate, 70 µL of each sample working solution was combined with 30 μL of tyrosinase (500 Units/mL in sodium phosphate buffer) in triplicate. After incubation at room temperature for 5 min, 110 μL of substrate (2 mM L-Tyrosine) was added to each well. Final concentrations of the crude extract, isolated compounds, and positive control ranged from 1.0–100 μg/mL. Incubation commenced for 30 min at room temperature and the enzyme activity was determined by measuring the absorbance at 490 nm. The percentage of tyrosinase inhibition was calculated as follows: Tyrosinase inhibition (%) = [(A − B) − (C − D)]/(A − B) × 100 (1) where A is the absorbance of the control with the enzyme, B is the absorbance of the control without the enzyme, C is the absorbance of the test sample with the enzyme and D is the absorbance of the test sample without the enzyme.

[5] = molecular target: T1, elastase from porcine pancrease (Sus scrofa, UniProt P00772); assay: biochemical; conditions: SANA substrate; samples screened at 100.00 μg/mL upper limit; read-out: Inhibitory Activities IC50, Elastase (converted)
T1 construct: from tissue; host or cells: porcine pancreas
Procedure: Elastase Inhibition Assay: Inhibition of elastase by the test samples was assayed using N-succyl-(Ala)-3-nitroanilide (SANA) as the substrate, monitoring the release of p-nitroanilide by the method described previously. The inhibitory activity determined the intensity of color released during cleavage of SANA by the action of elastase. Briefly, 1 mM SANA was prepared in 0.1 M Tris-HCl buffer pH 8.0 and 200 μL of this solution was added to the 20 μL of sample solution in a 96-Well plate. The mixtures were vortexed and preincubated for 10 min at 25 °C and then 20 μL of elastase from porcine pancrease (0.03 Units/mL) was added. The mixtures were further incubated for 10 min and the absorbance was measured at 410 nm. Methanol was used as control, while oleanolic acid used as a positive control.

[6] = molecular target: Acetylcholinesterase (AChE) (Homo sapiens, UniProt P22303); assay: biochemical; conditions: 500.00 μg/mL upper concentration limit; read-out: Inhibitory Activities IC50, Acetylcholinesterase (converted)
Procedure: Acetylcholinesterase Inhibition Assay: Acetylcholinesterase (AChE) inhibitory activity was measured using Ellman’s method as previously described with minor modifications. AChE catalysis the hydrolysis of acetythiocholine iodide (ACTI as substrate) to thiocholine, which can then react with Ellman’s reagent (DTNB) to produce 5-thio-2-nitrobenzoate (yellow color). In the presence of samples (inhibitors), the release of 5-thio-2-nitrobenzoate (yellow color) is reduced and it is monitored by measuring the absorbance at 450 nm.
In a 96-Well plate, the reaction mixture contains 50 µL of samples pre-incubated with 125 µL of 3 mM 5,5ʹ-Dithiobis-(2-nitrobenzoic acid), and 25 µL AChE (2.0 U/mL), in 50 mM tris-HCl buffer (pH 8.0), with 0.1% bovine serum albumin (BSA) for 15 minutes at 25 °C. Subsequently, 25 µL (15 mM) ACTI was added to the incubation mixture and further incubated for 10 min at 25 °C. […] Absorbance was recorded at 450 nm. The percent AChE inhibitory activity is given by: [A0 − (B − C)]/A0 × 100 (3) where A0 = full enzymatic reaction; B = Activity in the presence of sample; and C = Activity without sample.

Rat liver microsomes = conditions: Fe2+-induced, TBARs, samples screened at 50.00 μg/mL, ± STDEV
[7] = ORAC assay, peroxyl radical absorbance capacity (ORACROO); conditions: trolox equivalents; AAPH, 37 °C; ± % STDEV
Procedure: as §1

Chain of Acetylcholinesterase (AChE) (P22303 32-614, species assumed): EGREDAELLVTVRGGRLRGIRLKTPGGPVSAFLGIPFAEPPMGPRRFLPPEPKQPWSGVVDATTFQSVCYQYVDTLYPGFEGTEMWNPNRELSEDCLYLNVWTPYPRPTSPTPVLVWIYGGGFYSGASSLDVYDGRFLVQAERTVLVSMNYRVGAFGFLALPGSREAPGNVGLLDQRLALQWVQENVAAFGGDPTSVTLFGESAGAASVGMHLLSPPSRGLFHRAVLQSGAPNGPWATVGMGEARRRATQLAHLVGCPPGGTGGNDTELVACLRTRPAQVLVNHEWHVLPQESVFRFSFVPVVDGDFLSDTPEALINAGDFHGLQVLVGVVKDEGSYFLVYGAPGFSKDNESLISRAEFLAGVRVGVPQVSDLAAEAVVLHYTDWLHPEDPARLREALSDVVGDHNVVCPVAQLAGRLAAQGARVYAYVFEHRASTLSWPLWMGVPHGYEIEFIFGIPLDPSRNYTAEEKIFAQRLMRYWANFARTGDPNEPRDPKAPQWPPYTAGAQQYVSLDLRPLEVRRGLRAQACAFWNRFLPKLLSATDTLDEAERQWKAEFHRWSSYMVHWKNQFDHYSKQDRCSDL
T1 sequence (P00772 27-266): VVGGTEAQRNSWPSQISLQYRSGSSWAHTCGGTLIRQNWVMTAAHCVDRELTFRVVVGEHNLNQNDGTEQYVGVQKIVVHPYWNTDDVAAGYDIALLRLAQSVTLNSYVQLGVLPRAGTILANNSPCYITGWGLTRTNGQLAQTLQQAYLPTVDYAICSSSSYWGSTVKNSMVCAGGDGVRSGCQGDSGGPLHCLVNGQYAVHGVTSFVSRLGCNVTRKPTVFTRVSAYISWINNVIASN

Compound	Hydroxyl (ORACOH) [1]	Prooxidant (copper-initiated prooxidant activity) [2] [prooxidant units]	TEAC [3] [μM TE/g DW]	FRAP [4] [µMAAE/g]	Inhibitory Activities IC50, Tyrosinase (mushroom tyrosinase) [µg/mL]	IC50 [5] [µM]	IC50 [6] [µM]	Anti-Lipid peroxidation IC50 (Rat liver microsomes) [µg/mL]	Peroxyl (ORAC peroxyl radical absorbance capacity) [7] [µM TE/g]
CC(=O)OC/C(C)=C/Cc1c(O)cc(O)c(C(=O)c2ccccc2)c1O [Compound 1, 1-benzoyl-3(3-methylbut-2-enylacetate)-phloroglucinol]	64.85 ± 10.95 × 10^6 µMTE/g	8.92 ± 1.15	19545.00 ± 10.25	2530.54 ± 0.92	35.63 ± 4.67	> 281	752	5.12 ± 0.90	–
C=C(C)[C@@H](O)Cc1c(O)cc(O)c(C(=O)c2ccccc2)c1O [Compound 2, 1-benzoyl-3(2S-hydroxyl-3-methylbut-3-enyl)-phloroglucinol]	94.97 ± 5.88 × 10^6 µMTE/g	756.90 ± 1.98	43615.73 ± 6.66	4950.08 ± 0.65	26.72 ± 5.05	> 318	852	3.55 ± 1.92	–
CC(C)C(=O)c1c(O)cc(O)c2c1OC(C)(C)[C@@H](O)C2 [Compound 3, 8-(2-methyl-1-propanone)-3S,5,7-trihydroxyl-2,2-dimethylchromane]	5.99 ± 4.52 × 10^6 µMTE/g	41.73 ± 8.20	6001.40 ± 5.63	155.65 ± 12.02	80.31 ± 3.31	90.3	974	>50.00	3937.78 ± 25.85
CCC(C)C(=O)c1c(O)cc(OCC=C(C)C)cc1O (centres unmarked) [Compound 4, 1-(2-methylbutanone)-4-O-prenyl-phloroglucinol]	3.92 ± 14.47 × 10^6 µMTE/g	7.02 ± 4.02	1629.10 ± 2.03	194.27 ± 1.78	>100.00	164	981	44.62 ± 2.08	5406.65 ± 1.39
CC(C)=CCOc1cc(O)c(C(=O)C(C)C)c(O)c1 [Compound 5, 1-(2-methylpropanone)-4-O-prennyl-phloroglucinol]	5.60 ± 0.79 × 10^6 µMTE/g	12.33 ± 6.62	2673.62 ± 1.68	446.64 ± 8.07	>100.00	263	957	20.22 ± 2.72	6053.87 ± 18.67
CCCC(=O)c1c(O)cc(O)c(CC=C(C)C)c1O [Compound 6, 1-(butanone)-3-prenyl-phloroglucinol]	18.07± 3.47 × 10^6 µMTE/g	64.37 ± 0.22	4316.61 ± 1.06	1183.52 ± 6.20	>100.00	134	957	30.80 ± 2.12	13544.93 ± 12.13
CCC(C)C(=O)c1c(O)cc(O)c(CC=C(C)C)c1O (centres unmarked) [Compound 7, 1-(2-methylbutanone)-3-prenyl-phloroglucinol]	23.12 ± 18.94 × 10^6 µMTE/g	73.87 ± 1.10	9998.71 ± 2.66	1029.03 ± 0.66	>100.00	240	936	27.49 ± 3.19	14139.74 ± 5.96
CCCC(=O)c1c(O)cc(O)c(C/C=C(\C)COC(C)=O)c1O [Compound 8, 1-butanone-3-(3-methylbut-2-enylacetate)-phloroglucinol]	16.70 ± 1.25 × 10^6 µMTE/g	76.59 ± 0.27	6757.40 ± 4.69	1203.02 ± 2.07	>100.00	197	769	27.56 ± 0.63	14218.17 ± 12.36
CC(C)=CCc1c(O)cc(O)c(C(=O)C(C)C)c1O [Compound 9, 1-(2-methylpropanone)-3-prenylphloroglucinol]	24.24 ± 1.71 × 10^6 µMTE/g	69.54 ± 0.29	4423.32 ± 3.11	1096.01 ± 1.12	>100.00	233	–	20.95 ± 2.62	13639.27 ± 17.62
CC(=O)OC/C(C)=C/Cc1c(O)cc(O)c(C(=O)C(C)C)c1O [Compound 10, caespitate]	16.26 ± 15.39 × 10^6 µMTE/g	92.31 ± 1.59	8705.14 ± 1.83	1019.28 ± 1.79	>100.00	182	777	20.50 ± 4.01	16735.55 ± 21.72
O=C(O[C@@H]1Cc2c(O)cc(O)cc2O[C@@H]1c1cc(O)c(O)c(O)c1)c1cc(O)c(O)c(O)c1 [EGCG, epigallocatechin gallate, reference compound]	3.91 ± 4.65 × 10^6 µMTE/g	6.48 ± 1.19	11545.44 ± 17.28	3326.45 ± 5.76	–	–	–	1.04 ± 1.02	–
